Measured values reported in patent publication US20130310379A1, “MODULATORS OF METHYL MODIFYING ENZYMES, COMPOSITIONS AND USES THEREOF” (CONSTELLATION PHARMACEUTICALS, priority 2010, published 2013).

These compounds were tested against EZH2 (Homo sapiens, UniProt Q15910) (assay: EZH2 assay: rPRC2 with biotinylated oligonucleosome substrates and 3H SAM, FlashPlate scintillation counting, IC50). Details: rPRC2, biotinylated oligonucleosome substrates, 3H SAM; read-out: EZH2 IC50.
Type: biochemical
Description: Assays were carried out by mixing rPRC2 together with biotinylated oligonucleosome substrates in the presence of the radio-labeled enzyme co-factor, S-adenosyl-L-methionine (^3H SAM) (Perkin Elmer) and monitoring the enzymatically mediated transfer of tritiated methyl groups from ^3H SAM to histone lysine residues. The amount of resulting tritated methylhistone product was measured by first capturing the biotinylated oligonuclesomes in streptavidin (SAV) coated FlashPlates (Perkin Elmer), followed by a wash step to remove un-reacted ^3H SAM, and then counting on a TopCount NXT 384 well plate scintillation counter (Perkin Elmer). The final assay conditions for EZH2 were as follows: 50 mM Tris Buffer pH 8.5, 1 mM DTT, 69 uM Brij-35 detergent, 5.0 mM MgCl2, 0.1 mg/mL BSA, 0.2 uM ^3H SAM, 0.2 uM biotinylated oligonucleosomes, 3.6 uM H3K27me3 peptide and 2 nM EZH2.
Compound IC50 measurements were obtained as follows: Compounds were first dissolved in 100% DMSO as 10 mM stock solutions. […] A 12.5 uL volume of the HMT enzyme, H3K27me3 peptide and oligonucleosome substrate in assay buffer was added to each well of the assay plate using a Multidrop Combi (ThermoFisher). Compounds were pre-incubated with the enzyme for 20 min, followed by initiation of the methyltransferase reaction by addition of 12.5 uL of 3H SAM in assay buffer (final volume=25 uL). The final concentrations of compounds ranged from a top default concentration of 80 uM down to 0.16 uM in ten 2-fold dilution steps. Reactions were carried out for 60 minutes and quenched with 20 uL per well of 1.96 mM SAH, 50 mM Tris PH 8.5, 200 mM EDTA. Stopped reactions were transferred to SAV coated Flashplates (Perkin Elmer), incubated for 120 min, washed with a plate washer, and then read on the TopCount NXT (1.0 min/well) to measure the amount of methylhistone product formed during the reaction. The amount of methylhistone product was compared with the amount of product formed in the 0% and 100% inhibition control wells allowing the calculation of % Inhibition in the presence of the individual compounds at various concentrations. IC50's were computed using a 4 parameter fit non-linear curve fitting software package (XLFIT, part of the database package, ActivityBase (IDBS)) where the four parameters were IC50, Hill slope, pre-transitional baseline (0% INH), and post-transitional baseline (100% INH); with the latter two parameters being fixed to zero and 100%, respectively, by default.

Sequence of EZH2 (Q15910 whole entry): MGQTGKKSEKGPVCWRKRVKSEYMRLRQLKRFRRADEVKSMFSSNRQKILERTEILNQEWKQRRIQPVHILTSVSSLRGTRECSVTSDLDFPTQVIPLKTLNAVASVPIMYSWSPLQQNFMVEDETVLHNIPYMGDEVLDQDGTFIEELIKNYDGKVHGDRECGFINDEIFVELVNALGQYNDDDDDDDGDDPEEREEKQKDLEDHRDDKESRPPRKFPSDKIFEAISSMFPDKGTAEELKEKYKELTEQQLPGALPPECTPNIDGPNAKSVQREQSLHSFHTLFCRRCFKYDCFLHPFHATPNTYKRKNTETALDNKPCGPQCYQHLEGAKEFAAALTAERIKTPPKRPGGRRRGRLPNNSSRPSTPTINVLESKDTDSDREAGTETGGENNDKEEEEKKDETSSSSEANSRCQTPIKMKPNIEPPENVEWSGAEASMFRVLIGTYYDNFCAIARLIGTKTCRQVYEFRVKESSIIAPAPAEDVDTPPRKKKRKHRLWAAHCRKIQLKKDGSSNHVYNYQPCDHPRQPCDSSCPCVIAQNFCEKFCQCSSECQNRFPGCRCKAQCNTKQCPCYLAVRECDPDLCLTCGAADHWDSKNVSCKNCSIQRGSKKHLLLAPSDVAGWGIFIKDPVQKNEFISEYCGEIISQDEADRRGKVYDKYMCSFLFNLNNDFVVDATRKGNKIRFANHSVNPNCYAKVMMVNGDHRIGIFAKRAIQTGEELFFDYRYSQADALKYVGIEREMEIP
Sequence of EZH2 (O75530 whole entry partner): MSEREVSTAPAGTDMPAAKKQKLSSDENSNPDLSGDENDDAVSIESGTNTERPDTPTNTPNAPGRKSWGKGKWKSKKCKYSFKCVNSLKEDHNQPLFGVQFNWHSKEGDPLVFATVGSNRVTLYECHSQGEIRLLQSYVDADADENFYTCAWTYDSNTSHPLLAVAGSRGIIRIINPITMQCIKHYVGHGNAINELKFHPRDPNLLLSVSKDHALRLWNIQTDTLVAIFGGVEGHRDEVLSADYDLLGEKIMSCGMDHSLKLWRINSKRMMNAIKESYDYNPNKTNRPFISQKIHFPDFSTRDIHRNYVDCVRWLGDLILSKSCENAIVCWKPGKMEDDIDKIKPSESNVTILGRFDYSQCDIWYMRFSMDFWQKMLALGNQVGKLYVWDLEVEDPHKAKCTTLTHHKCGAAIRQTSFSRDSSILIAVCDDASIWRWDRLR
Sequence of EZH2 (Q15022 whole entry partner): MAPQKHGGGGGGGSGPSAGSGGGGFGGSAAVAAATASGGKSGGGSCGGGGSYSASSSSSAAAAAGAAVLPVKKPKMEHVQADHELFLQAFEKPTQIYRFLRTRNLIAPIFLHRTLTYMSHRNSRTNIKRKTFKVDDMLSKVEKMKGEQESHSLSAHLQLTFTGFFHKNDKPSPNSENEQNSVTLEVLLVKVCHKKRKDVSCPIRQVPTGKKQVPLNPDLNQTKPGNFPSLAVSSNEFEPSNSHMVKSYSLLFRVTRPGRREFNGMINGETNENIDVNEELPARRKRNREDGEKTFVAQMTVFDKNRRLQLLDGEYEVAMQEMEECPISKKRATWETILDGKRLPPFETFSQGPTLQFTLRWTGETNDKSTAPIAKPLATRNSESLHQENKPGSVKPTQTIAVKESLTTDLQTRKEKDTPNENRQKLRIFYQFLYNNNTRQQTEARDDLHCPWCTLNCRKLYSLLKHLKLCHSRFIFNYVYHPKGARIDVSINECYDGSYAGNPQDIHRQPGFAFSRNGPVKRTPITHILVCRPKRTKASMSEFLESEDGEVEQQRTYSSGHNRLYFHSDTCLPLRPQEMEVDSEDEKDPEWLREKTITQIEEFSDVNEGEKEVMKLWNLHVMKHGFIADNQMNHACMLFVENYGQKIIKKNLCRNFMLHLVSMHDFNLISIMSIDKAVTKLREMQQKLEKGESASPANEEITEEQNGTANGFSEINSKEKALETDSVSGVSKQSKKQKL

SMILES	IC50
O=C(N[C@H]1CCN(Cc2ccccc2)C1)c1ccc(Oc2ccccc2)cc1 (stereo in doubt) [Compound I-101]	> 80 µM
CC1(C)CC(NC(=O)c2ccc(COc3cccc(-c4ccc(N)nc4)c3)cc2)CC(C)(C)N1 [Compound I-1]	< 5 µM
CC1(C)CC(NC(=O)c2ccc(Oc3ccccc3C#N)c(Cl)c2)CC(C)(C)N1 [Compound I-2]	< 5 µM
CC1(C)CC(NC(=O)c2ccc(COc3cccc(-c4cnc(N)nc4)c3)cc2)CC(C)(C)N1 [Compound I-3]	< 5 µM
CC1(C)CC(NC(=O)c2ccc(COc3cccc4ccccc34)cc2)CC(C)(C)N1 [Compound I-4]	< 5 µM
CC1(C)CC(NC(=O)c2ccc(COc3cccc(-c4cnc5[nH]ccc5c4)c3)cc2)CC(C)(C)N1 [Compound I-5]	< 5 µM
CC1(C)CC(NC(=O)c2ccc(Oc3ccccc3C#N)cc2)CC(C)(C)N1 [Compound I-6]	< 5 µM
CC1(C)CC(NC(=O)c2ccc(COc3cccc(-c4cccnc4)c3)cc2)CC(C)(C)N1 [Compound I-7]	5 to 20 µM
CC1(C)CC(NC(=O)c2ccc(COc3cccc(Br)c3)cc2)CC(C)(C)N1 [Compound I-8]	5 to 20 µM
Cc1cc(C)cc(OCc2ccc(C(=O)NC3CC(C)(C)NC(C)(C)C3)cc2)c1 [Compound I-9]	5 to 20 µM
CC1(C)CC(NC(=O)c2ccc(Oc3cccnc3C#N)cc2)CC(C)(C)N1 [Compound I-10]	5 to 20 µM
CC1(C)CC(NC(=O)c2ccc(COc3cccc(-c4cc[nH]c(=O)c4)c3)cc2)CC(C)(C)N1 [Compound I-11]	5 to 20 µM
CC1(C)CC(NC(=O)c2ccc(COc3cccc(-c4cn[nH]c4)c3)cc2)CC(C)(C)N1 [Compound I-12]	5 to 20 µM
Cc1cncc(-c2cccc(OCc3ccc(C(=O)NC4CC(C)(C)NC(C)(C)C4)cc3)c2)c1 [Compound I-13, 4-((3-(5-methylpyridin-3-yl)phenoxy)methyl)-N-(2,2,6,6-tetramethylpiperidin-4-yl)benzamide]	5 to 20 µM
Cc1ccc(-c2cccc(OCc3ccc(C(=O)NC4CC(C)(C)NC(C)(C)C4)cc3)c2)cn1 [Compound I-14]	5 to 20 µM
Cc1ccc(OCc2ccc(C(=O)NC3CC(C)(C)NC(C)(C)C3)cc2)cc1C [Compound I-15]	5 to 20 µM
CC1(C)CC(NC(=O)c2ccc(Oc3ccccc3Br)cc2)CC(C)(C)N1 [Compound I-16]	5 to 20 µM
CC1(C)CC(NC(=O)c2ccc(Oc3cccc(C#N)c3)cc2)CC(C)(C)N1 [Compound I-17]	5 to 20 µM
Cc1ccc(-c2cccc(OCc3ccc(C(=O)NC4CC(C)(C)NC(C)(C)C4)cc3)c2)s1 [Compound I-18]	5 to 20 µM
CC1(C)CC(NC(=O)c2ccc(COc3cccc(-c4ccc(F)nc4)c3)cc2)CC(C)(C)N1 [Compound I-19]	5 to 20 µM
Cc1ncccc1Oc1ccc(C(=O)NC2CC(C)(C)NC(C)(C)C2)cc1 [Compound I-20]	5 to 20 µM
CC1(C)CC(NC(=O)c2ccc(Oc3cccnc3)cc2)CC(C)(C)N1 [Compound I-21]	20 to 80 µM
Cc1ccc(OCc2ccc(C(=O)NC3CC(C)(C)NC(C)(C)C3)cc2)cc1 [Compound I-22]	20 to 80 µM
Cc1cccc(C)c1OCc1ccc(C(=O)NC2CC(C)(C)NC(C)(C)C2)cc1 [Compound I-23]	20 to 80 µM
Cc1cc(C(=O)NC2CC(C)(C)NC(C)(C)C2)ccc1Oc1ccccc1 [Compound I-24]	20 to 80 µM
CC1(C)CC(NC(=O)c2ccc(Oc3ccc(O)cc3)cc2)CC(C)(C)N1 [Compound I-25]	20 to 80 µM
CC(=O)Nc1cccc(Oc2ccc(C(=O)NC3CC(C)(C)NC(C)(C)C3)cc2)c1 [Compound I-26, 4-(3-Acetamidophenoxy)-N-(2,2,6,6-tetramethylpiperidin-4-yl)benzamide]	20 to 80 µM

SMILES	IC50
Cc1cc(-c2cccc(OCc3ccc(C(=O)NC4CC(C)(C)NC(C)(C)C4)cc3)c2)cnc1F [Compound I-27]	20 to 80 µM
CC1(C)CC(NC(=O)c2ccc(Oc3ccccc3Cl)cc2)CC(C)(C)N1 [Compound I-28]	20 to 80 µM
CC1(C)CC(NC(=O)c2ccc(Oc3cccc(O)c3)cc2)CC(C)(C)N1 [Compound I-29]	20 to 80 µM
CC1(C)CC(NC(=O)c2ccc(COc3cccc(-c4cccc(O)c4)c3)cc2)CC(C)(C)N1 [Compound I-30]	20 to 80 µM
COc1cc(C(=O)NC2CC(C)(C)NC(C)(C)C2)ccc1COc1cccc(Br)c1 [Compound I-31]	20 to 80 µM
CC1(C)CC(NC(=O)c2ccc(COc3cccc(-c4cncnc4)c3)cc2)CC(C)(C)N1 [Compound I-32]	20 to 80 µM
CC1(C)CC(NC(=O)c2ccc(COc3cccc(-c4cncc(C#N)c4)c3)cc2)CC(C)(C)N1 [Compound I-33]	20 to 80 µM
CCOC(=O)c1cccc(Oc2ccc(C(=O)NC3CC(C)(C)NC(C)(C)C3)cc2)c1 [Compound I-34]	20 to 80 µM
CCc1ccccc1Oc1ccc(C(=O)NC2CC(C)(C)NC(C)(C)C2)cc1 [Compound I-35]	20 to 80 µM
CC1(C)CC(NC(=O)c2ccc(COc3cccnc3)cc2)CC(C)(C)N1 [Compound I-36]	20 to 80 µM
COc1cncc(-c2cccc(OCc3ccc(C(=O)NC4CC(C)(C)NC(C)(C)C4)cc3)c2)c1 [Compound I-37]	20 to 80 µM
CC1(C)CC(NC(=O)c2ccc(COc3cccc(-c4ccc(O)cc4)c3)cc2)CC(C)(C)N1 [Compound I-38]	20 to 80 µM
CC1(C)CC(NC(=O)c2ccc(COc3ccccc3)cc2)CC(C)(C)N1 [Compound I-39]	20 to 80 µM
CC1(C)CC(NC(=O)c2ccc(Oc3ccccc3F)cc2)CC(C)(C)N1 [Compound I-40]	20 to 80 µM
COc1ccc(-c2cccc(OCc3ccc(C(=O)NC4CC(C)(C)NC(C)(C)C4)cc3)c2)cn1 [Compound I-41]	20 to 80 µM
Cc1ccc(OCc2ccc(C(=O)NC3CC(C)(C)NC(C)(C)C3)cc2)c(C)c1 [Compound I-42]	20 to 80 µM
Cc1ccc(CO)cc1Oc1ccc(C(=O)NC2CC(C)(C)NC(C)(C)C2)cc1 [Compound I-43]	20 to 80 µM
CC1(C)CC(NC(=O)c2ccc(Oc3ccccc3N3CCOCC3)cc2)CC(C)(C)N1 [Compound I-44]	20 to 80 µM
CC1(C)CC(NC(=O)c2ccc(SCc3ccccc3)cc2)CC(C)(C)N1 [Compound I-45, 4-(Benzylthio)-N-(2,2,6,6-tetramethylpiperidin-4-yl)benzamide]	20 to 80 µM
Cc1cccc(OCc2ccc(C(=O)NC3CC(C)(C)NC(C)(C)C3)cc2)c1 [Compound I-46, N-(2,2,6,6-tetramethylpiperidin-4-yl)-4-(m-tolyloxymethyl)benzamide]	20 to 80 µM
CC1(C)CC(NC(=O)c2ccc(COc3cccc(-c4cccnc4N)c3)cc2)CC(C)(C)N1 [Compound I-47]	20 to 80 µM
Cc1ccccc1Oc1ccc(C(=O)NC2CC(C)(C)NC(C)(C)C2)cc1 [Compound I-48]	20 to 80 µM
CC1(C)CC(NC(=O)c2ccc(Oc3ccccc3)c(Cl)c2)CC(C)(C)N1 [Compound I-49, 3-chloro-N-(2,2,6,6-tetramethylpiperidin-4-yl)-4-phenoxybenzamide]	20 to 80 µM
CC1(C)CC(NC(=O)c2ccc(Sc3ccccc3)cc2)CC(C)(C)N1 [Compound I-50]	20 to 80 µM
CC1(C)CC(NC(=O)c2ccc(COc3cccc(-c4cccc(C#N)c4)c3)cc2)CC(C)(C)N1 [Compound I-51]	20 to 80 µM
CC1(C)CC(NC(=O)c2ccc(Oc3ccccc3)cc2)CC(C)(C)N1 [Compound I-52]	20 to 80 µM
